Laboratory results from patent US20040248909A1, “Adenosine a1 receptor antagonist for treating hypoxia-induced learning memory impairment” (priority 2001, published 2004).

What was measured:
adenosine A1 receptor = target: T1, adenosine A1 receptor (Rattus norvegicus, UniProt P25099); conditions: cited from earlier work
T1 sequence (P25099 1-326): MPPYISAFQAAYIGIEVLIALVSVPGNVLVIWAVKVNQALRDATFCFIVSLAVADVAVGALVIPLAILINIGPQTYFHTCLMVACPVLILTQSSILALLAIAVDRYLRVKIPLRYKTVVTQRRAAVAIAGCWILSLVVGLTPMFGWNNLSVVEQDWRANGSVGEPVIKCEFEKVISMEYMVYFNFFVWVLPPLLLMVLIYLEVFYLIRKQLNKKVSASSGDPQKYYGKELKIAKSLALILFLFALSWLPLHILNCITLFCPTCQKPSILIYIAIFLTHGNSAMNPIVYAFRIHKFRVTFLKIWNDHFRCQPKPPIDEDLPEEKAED

CA1 pyramidal cells [1] = test: Carbachol-induced cholinergic CA1 θ field potential and intracellular θ in hippocampal slices, with or without brief hypoxia; assay type: cell-based, rat
Procedure: (§1) Brain slices and electrophysiology. Male Sprague-Dawley rats (150-200 gm) were anesthetized with pentobarbital and the brains were removed and cooled rapidly in aCSF solution, bubbled continuously with 95% O2 and 5% CO2. Hippocampi were sliced ([…]) and placed in oxygenated aCSF (NaCl, 124 mM; KCl 3; MgSO4 1.3; CaCl2 2.4; NaHCO3 26; NaH2PO4 1.25; and glucose 10). The CA1 pyramidal cells were recorded at 30-31° C. with sharp electrodes (tip resistance: 60-120 MΩ). Study was performed on CA1 neurons with stable resting membrane potential more negative than −70 mV. Unless otherwise mentioned, test stimuli were applied at frequency of 1 per minute (0.017 Hz). Signals were amplified with AxoClamo-2B amplifier, digitized and stored using DigiData 1200 with the P-Clamp data collection and analysis software (Axon Instruments, Inc.).
Hypoxia. Episodes of hypoxia were induced by replacing the oxygen supply with […] for 3 min or 95% N2/5% CO2 for 100 s. […] The hypoxia is milder than those used by others to produce an irreversible impairment of synaptic transmission^25.
Effects of brief hypoxia on functions of CA1 neurons were monitored on synaptic transmission, long-term potentiation (LTP) of glutamatergic EPSPs, and cholinergic θ, a memory-related neuronal activity synchronization that depends on a temporal heterosynaptic interaction. Bath application of carbachol (50 μM, 20 min), a cholinergic receptor agonist, to hippocampal slices mimicked septal activation and diffuse acetylcholine transmission and induced CA1 θ field potential (FIG. 1a; peak amplitude: 0.73±0.02 mV, n=10, p<0.05, at 7.4±0.7 Hz from background noise). The θ is sensitive to atropine blockade and lasted for more than 3h^7. The θ oscillation of membrane potential (7.5±1.0 mV; n=18; p<0.05) was also observed in CA1 pyramidal cells (intracellular θ; FIG. 1b). […] LTP of responses to schaffer collateral (Sch) glutamatergic inputs (FIG. 1c,e), however, was not reduced, but enhanced, by the hypoxia (FIG. 1d,e), consistent with reported hypoxic LTP^8 and the observation that LTP expression is not vulnerable to transient hypoxia a few minutes after hypoxia.

hypoxia rats = test: Hidden-platform water maze spatial learning and memory in rats subjected to brief hypoxia; assay type: in vivo, rat; conditions: bilateral i.c.v. 400 nmoles/site
Procedure: The figure illustrates experimental protocol (FIG. 4a), escape latency (means±SEM) in water maze training (FIG. 4b) across 12 trials (F11,312=50.14, p<0.0001), and quadrant preference (FIGS. 4c, 4d and 4e) conducted at the end of the twelfth training session, and swimming distance (in 1 min; FIG. 4f). Rats were either subjected to air or hypoxia (95% N2/5% CO2 for 100 s) about 30 min in a glass jar after the 2nd-or 4th trial of the day. Bilateral i.c.v. CPDPX (400 nmoles/site) or vehicle were administered before the 2nd and 4th trials of the day. Quadrant 4 is the target quadrant during training.
Spatial maze tasks. Male adult Wistar rats (200-250 gm) were anesthetized with sodium pentobarbital (60 mg/kg, i.p) and placed in a stereotactic apparatus (Kopf Instruments, Tujunga, Calif.). Two stainless steel guide cannulas were placed with the tips positioned at the coordinates (anterior-posterior, 0.5 mm; lateral, 1.5 mm; horizontal, 3.2 mm), under aseptic conditions. A 7-day recovery period was allowed before any further experimentation. All rats were randomly assigned to different groups (10 each) and swam for 2 min in a 1.5 m (diameter)×0.6 m (depth) pool (22±1° C.). […]
One of the most persistent consequences of transient hypoxia/ischemia is amnesia. Effects of brief hypoxia and CPDPX on spatial learning (FIG. 4a) were evaluated in rats, using a hidden-platform water maze. […]

CA1 pyramidal cells [2] = test: Sch-CA1 synaptic transmission (EPSPs) in hippocampal slices during brief hypoxia (synaptic arrest); assay type: cell-based, rat
Procedure: as §1
(§2) Hypoxia. Episodes of hypoxia were induced by replacing the oxygen supply with 95% N2/5% O2/5% CO2 for 3 min or 95% N2/5% CO2 for 100 s. […]
(§3) The period of hypoxia is known to block synaptic transmission of glutarmatergic inputs^8, GABAergic input^8,10 and cholinergic inputs ^11,12, causing disconnection, or synaptic ‘arrest’, of CA1 neuronal network^8. […] Effects of brief hypoxia on synaptic transmission and of agents on hypoxic responses were monitored on responses of CA1 pyramidal cells to Sch activation. […]

CA1 pyramidal cells [3] = test: Membrane response of CA1 pyramidal cells to local application of glutamate; assay type: cell-based, rat; conditions: 20 μl of 10 mM
Procedure: as §1, §2, §3

SMILES: CCCn1c(=O)c2[nH]c(C3CCCC3)nc2n(CCC)c1=O [CPDPX, 8-cyclopentyl-1,3-dipropylxanthine]
- effect on adenosine-mediation of anoxia induced synaptic glutamate release in CA1 pyramidal neurons (adenosine A1 receptor; Katchman et al. 1996): not affected
- effect on hypoxia-induced accumulation of adenosine (adenosine A1 receptor; Pearson et al. 2000): mitigates hypoxia-induced accumulation of adenosine during hypoxia
- intracellular θ after brief hypoxia (versus pre-hypoxia) (CA1 pyramidal cells [1]; in presence of CPDPX, CA1 pyramidal cells, n=8, p>0.05): 99.6±3.0%
- θ activity after brief hypoxia (versus pre-hypoxia) (CA1 pyramidal cells [1]; in presence of CPDPX, carbachol-induced CA1 θ, n=6, p>0.05): 100.2±3.2%
- quadrant preference in quadrant test (hypoxia rats; 24 hrs after last training trial, F3,36=169.7, p<0.0001): showed a preference for the target quadrant
- effect on hypoxic impairment of spatial memory (escape latency) (hypoxia rats; hypoxia 95% N2/5% CO2 100 s): eliminated hypoxic impairment on the spatial memory
- synaptic transmission at the end of the hypoxia versus control 100% (CA1 pyramidal cells [2]; Sch-CA1 EPSPs, brief hypoxia 5% O2 3 min, 10 μM, n=7, p>0.05): 99.2±2.4%
- effect on hypoxic synaptic arrest (CA1 pyramidal cells [2]; end of 3 min hypoxia, citicoline 100 μM, 8-cyclopentyl-1,3-dipropylxanthine 10 μM): synaptic arrest was abolished

SMILES: N[C@@H](CCC(=O)O)C(=O)O [glutamate]
- peak inward current, control value (CA1 pyramidal cells [3]; local application before hypoxia): 206.8±9.7 pA
- peak inward current (CA1 pyramidal cells [3]; local application during last few seconds of 3 min hypoxia, n=7): 201.2±10.5 pA

SMILES: C[N+](C)(C)CCOC(N)=O [carbachol]
- frequency of induced CA1 θ field potential (CA1 pyramidal cells [1]; bath application 50 μM, 20 min): 7.4±0.7 Hz
- induced CA1 θ field potential peak amplitude (CA1 pyramidal cells [1]; bath application 50 μM, 20 min, n=10): 0.73±0.02 mV
- θ oscillation of membrane potential (intracellular θ) (CA1 pyramidal cells [1]; carbachol 50 μM, CA1 pyramidal cells, n=18): 7.5±1.0 mV
